{
  "source": "patent US20120083473A1",
  "about": "“TREATMENT OF CONDITIONS BY TOLL-LIKE RECEPTOR MODULATORS” (priority 2010, published 2012)",
  "key": {"[1]": {"tested_on": "Bleomycin-induced fibrosis in C57BU6 mice", "experiment": "Bleomycin-induced lung fibrosis in mice", "format": "in vivo", "conditions": "500 nmol/animal s.c. daily; day 7 and day 21; ELISA", "experimental": "The efficacy of Compound 2 on mouse models of idiopathic lung fibrosis was studied as follows. Lung fibrosis was induced in 6-8 week old female C57BU6 mice. 0.8 U/kg of bleomycin (Hospira, Inc., Lake Forest, Ill.) was administered by intratracheal (i.t.) instillation on day 0. Bleomycin treated C57BU6 mice were divided into four groups (n 7 per group). Groups 2 and 4 were subcutaneously treated with Compound 2 at daily dose of 500 nmol/animal. Groups 1 and 3 were treated with saline control. Groups 1 and 2 were sacrificed on day 7 and groups 3 and 4 were sacrificed on day 21.\nMeasurements: Lung inflammation and fibrosis were evaluated by the following parameters: 1) cell infiltration to bronchial alveolar lavage (BAL); BAL were collected at the time of sacrifice and cell number was counted by hematocytometer. The infiltrated cells were differentiated by Wright-Giemsa staining. 2) BAL cytokines (IL-6, and IL-1b) by ELISA). 3) Lung histology by H&E staining and Sirius red staining (fibrosis). Histological samples were evaluated blindly."}, "[2]": {"tested_on": "murine peritoneal macrophages (PEC)", "experiment": "Cross-tolerance toward TLR ligands and pro-inflammatory cytokines in PEC (gene expression)", "format": "cell-based, mice", "experimental": "In addition, tolerance is tested also in response to primary cytokines IL-1-beta and TNFalpha. This approach clarifies whether the TLR7 partial agonist compound 2 of Table 2 promotes cross-tolerance of different members of the TLR family, as well as of the IL-1 and TNF receptor systems, which has been regularly reported.\nA second group of experiments was performed to evaluate the capacity of TMX to promote cross tolerance toward several TLR ligands and pro-inflammatory cytokines. PECs maintained in medium or pre-treated for 20 hours with 10 μM or 1 μM of TMX and re-challenged with several TLR agonists or pro-inflammatory cytokines were analyzed for the expression of selected M1 and M2 genes.\n(§1) Cell Culture and treatments. Peritoneal exudate cells (PEC) were harvested from mice injected with 1 ml of 3% (w/v) thioglycollate medium (Difco, Detroit, Mich.) 4 days prior to isolation. PECs were incubated in RPMI 1640 medium, containing 10% fetal bovine serum, 2 mM glutamine and 100 U/ml of penicillin-streptomycin. The concentration for the different treatments were as follows: LPS (100 ng/ml) (Lipopolysaccharide from Salmonella Abortus Equi S-form, Alexis), CpG (1 μg/ml), Pam3CSK (2 μg/ml), Poly I:C (10 μg/ml), Loxorubine (100 μM), flagellin (100 ng/ml) IL-1β (20 ng/ml), TNF (20 ng/ml), IL-10 (20 ng/ml) (Peprotech), IFNγ (200 U/ml) (Peprotech). To induce TMX tolerance, cells were incubated in the presence of TMX (10 μM or 1 μM) for 20 hrs, washed and maintained in RPMI medium for 2 hrs and then re-challenged with TMX (10 μM) for 4 hrs. To induce TMX-tolerization (T/M) cells were treated with TMX for 20 hrs, washed and then maintained in medium for additional 6 hours, without TMX re-challenge. To induce M1-activation, cells were incubated in medium for 20 hrs, washed, left in medium for 2 hrs and finally stimulated with TMX (10 μM) for 4 hrs. Control cells (M/M) were cultured in medium for the entire period of the experiment. For gene expression analysis, total RNA was extracted from TMX treated and untreated cells with trizol (Invitrogen), according to the manufacturer's instructions. To analyze cytokines and chemokines production supernatants were collected 24 hrs after the second challenge with TMX.\nReal-Time PCR. Total RNA was purified as previously described. Briefly, reverse transcription from 1 μg of RNA was performed using cDNA Archive kit (Applied Biosystem, NJ, USA). Real time PCR was performed using Power Syber Green PCR Master Mix (Applied Biosystem, NJ, USA) and detected by 7900HT Fast Real-Time System (Applied Biosystem, NJ, USA). […] Results were normalized to the expression of the housekeeping gene β-actin and then expressed as folds of upregulation, with respect to the control cell population."}, "[3]": {"tested_on": "murine peritoneal macrophages (PEC)", "experiment": "Secretion of M1 and M2 gene products by TMX-tolerant PEC (ELISA)", "format": "cell-based, mice", "experimental": "Based on the results of the gene expression analysis, performed by Real-Time PCR, selected gene products are validated at protein level, either by cytofluorimetry (surface molecules) or ELISA (secreted products).\nThe secretion of selected M1 and M2 gene products by TMX-tolerant murine peritoneal macrophages (PEC) was evaluated.\nas §1, with “To induce M1-activation, cells were incubated in medium for 20 hrs, washed, left in medium for 2 hrs and finally stimulated with TMX (10 μM) for 4 hrs. Control cells (M/M) were cultured in medium for the entire period of the experiment. For gene expression analysis, total RNA was extracted from TMX treated and untreated cells with trizol (Invitrogen), according to the manufacturer's instructions. To analyze cytokines and chemokines production supernatants were collected 24 hrs after the second challenge with TMX.” left out"}, "[4]": {"tested_on": "murine peritoneal macrophages (PEC)", "experiment": "Dose-response of M1 and M2 gene expression in PEC (RT PCR)", "format": "cell-based, mice", "experimental": "A third group of experiments was performed to investigate the dose-response effects of TMX, its potency as compared to classical inflammatory signals (e.g. LPS) and the activation of selected transcription factors playing an established role in tolerance, as well as in the induction of M1/M2 polarized inflammatory programs. PECs treated for 4 hours or 20 hours with 100 ng/mlof LPS or increased concentrations of TMX or 1V209 were analyzed by RT PCR for the expression of representative M1 (TNFα, IL-12p40) and M2 (IL-10, TGFβ) genes. […] In this experiment, as compared to 1V209, TMX is a lower inducer of M1 genes expression.\nas §1\nReal-Time PCR. Total RNA was purified as previously described. Briefly, reverse transcription from 1 μg of RNA was performed using cDNA Archive kit (Applied Biosystem, NJ, USA). Real time PCR was performed using Power Syber Green PCR Master Mix (Applied Biosystem, NJ, USA) and detected by 7900HT Fast Real-Time System (Applied Biosystem, NJ, USA). Data were processed using the SDS2.2.2 software (Applied Biosystem, NJ, USA). Results were normalized to the expression of the housekeeping gene β-actin and then expressed as folds of upregulation, with respect to the control cell population."}},
  "data": [
    {"smiles": "COCCOc1nc(N)c2nc(O)n(Cc3ccc(C(=O)NCCOCCOCCOCCOCCOCCOCCn4cc(CCC(=O)O)nn4)cc3)c2n1", "note": "[Compound 2]", "values": [
      {"measurement": "levels of IL-6 and IL-1b cytokines in BAL", "setting": "[1]", "result": "under the detection levels of ELISA"},
      {"measurement": "M2 genes expression on re-challenge with different TLR agonists", "setting": "[2]; PECs pre-treated with TMX", "result": "triggered the expression of M2 genes"},
      {"measurement": "M1 genes expression in response to TLR ligands", "setting": "[2]; PECs tolerized by 20 hours pre-treatment with 10 μM TMX", "result": "inability to up-regulate M1 genes expression"},
      {"measurement": "cross-tolerance", "setting": "[2]; TMX 10 microM, exception CXCL10 following re-challenge with CpG, poly I:C, LPS", "result": "observed"},
      {"measurement": "IL-10 expression following re-challenge of TMX-tolerant macrophages with TNF", "setting": "[2]; TNF 20 ng/ml", "result": "still induced"},
      {"measurement": "IL-1p and IL-6 in the supernatant of TMX-tolerant macrophages", "setting": "[3]; ELISA", "result": "increased levels"},
      {"measurement": "state of tolerance: M1 and M2 cytokines production", "setting": "[3]; only 10 microM TMX, ELISA of supernatants", "result": "low M1 and high M2 cytokines production"},
      {"measurement": "most potent dose tested for the induction of both M1 and M2 genes", "setting": "[4]; PEC", "result": 30, "unit": "µM"},
      {"measurement": "induction of both M1 and M2 gene expression", "setting": "[4]; PECs treated 4 hours or 20 hours with increased concentrations", "result": "dose-dependent induction"},
      {"measurement": "induction of M1 genes expression as compared to 1V209", "setting": "[4]; PECs, 4 or 20 hours", "result": "lower inducer"}
    ]}
  ]
}
